Experimental data as given in ChEMBL document CHEMBL1158055, “Grandisines C-G, indolizidine alkaloids from the Australian rainforest tree Elaeocarpus grandis” (J Nat Prod, 2006).

target: Delta-type opioid receptor (Homo sapiens, UniProt P41143); assay: Displacement of [125I]deltorphin 2 from human recombinant delta opioid receptor expressed in HEK293 cells; format: cell-based
Sequence (P41143 whole entry): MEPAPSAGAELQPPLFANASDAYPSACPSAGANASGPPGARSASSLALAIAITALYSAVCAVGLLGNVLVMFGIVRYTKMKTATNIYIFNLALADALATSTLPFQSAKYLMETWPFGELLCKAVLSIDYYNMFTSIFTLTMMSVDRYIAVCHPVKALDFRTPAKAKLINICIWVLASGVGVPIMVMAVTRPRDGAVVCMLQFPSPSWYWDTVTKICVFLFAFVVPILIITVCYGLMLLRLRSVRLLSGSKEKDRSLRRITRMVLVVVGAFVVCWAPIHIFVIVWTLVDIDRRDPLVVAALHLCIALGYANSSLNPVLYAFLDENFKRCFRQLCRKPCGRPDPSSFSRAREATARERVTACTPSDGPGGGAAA

Row | SMILES | IC50 [µM]
1 | C[C@H]1CC=CC2=C1C(=O)[C@@H]1[C@@H](CCN3CCC[C@@H]13)O2 | 9.9
2 | C[C@H]1CC=CC(=O)[C@@H]1C(=O)C1=CCCN2CCC[C@@H]12 [GRANDISINE D] | 1.65

Continued, values first:

Row | IC50 [µM] | SMILES
3 | 14.6 | C[C@H]1C[C@H](O)CC2=C1C(=O)[C@@H]1[C@@H](CCN3CCC[C@@H]13)O2 [GRANDISINE C]
4 | 1.55 | C[C@H]1C[C@H](N)CC2=C1C(=O)[C@@H]1[C@@H](CCN3CCC[C@@H]13)O2 [GRANDISINE F]
5 | 75.4 | COC(=O)C[C@@H]1C[C@H](C)CC(C2=CCCN3CCCC23)=N1 (stereo not given in full) [GRANDISINE G]
